For one assay, the system named is Mucor. Briefly: Antifungal activity against Mucor species assessed as lowest dose level for total inhibition of fungal growth. It is filed as functional.
In assay [1] the test system is Trichophyton mentagrophytes. Briefly: Antifungal activity against Trichophyton mentagrophytes assessed as lowest dose level for total inhibition of fungal growth. It is filed as functional.
The test system of assay [2] is Candida albicans. Briefly: In vivo antifungal activity against Candida albicans topically infected in guinea pig assessed as animal cured at 10 mg/kg, po. Format: functional, organism-based. Set-up: dose 10 mg/kg.
For assay [3], the system named is Staphylococcus haemolyticus. Briefly: Antibacterial activity against Staphylococcus haemolyticus assessed as lowest dose level for total inhibition of bacterial growth. Format: functional.
Assay [4] concerns Candida albicans. Briefly: Antifungal activity against Candida albicans assessed as lowest dose level for total inhibition of fungal growth. Format: functional.
The test system of a further assay is Streptococcus pyogenes. Briefly: Antibacterial activity against Streptococcus pyogenes assessed as lowest dose level for total inhibition of bacterial growth. It is filed as functional.
Assay [5] concerns Erysipelothrix rhusiopathiae. Briefly: Antibacterial activity against Erysipelothrix insidiosa assessed as lowest dose level for total inhibition of bacterial growth. It is filed as functional.
The next assay deals with Trichophyton rubrum. Briefly: Antifungal activity against Trichophyton rubrum assessed as lowest dose level for total inhibition of fungal growth. It is filed as functional.
A further assay has as its system Microsporum canis. Briefly: Antifungal activity against Microsporum canis assessed as lowest dose level for total inhibition of fungal growth. Format: functional.
The subject of another assay is Aspergillus fumigatus. Briefly: Antifungal activity against Aspergillus fumigatus assessed as lowest dose level for total inhibition of fungal growth. It is filed as functional.
The test system of a further assay is Candida tropicalis. Briefly: Antifungal activity against Candida tropicalis assessed as lowest dose level for total inhibition of fungal growth. It is filed as functional.
The next assay concerns Sporothrix schenckii. Briefly: Antifungal activity against Sporothrix schenckii assessed as lowest dose level for total inhibition of fungal growth. Format: functional.
Another assay has as its system Saprolegnia. Briefly: Antifungal activity against Saprolegnia species assessed as lowest dose level for total inhibition of fungal growth. Format: functional.
The subject of the next assay is Phialophora verrucosa. Briefly: Antifungal activity against Phialophora verrucosa assessed as lowest dose level for total inhibition of fungal growth. It is filed as functional.
The subject of a further assay is Cryptococcus neoformans. Briefly: Antifungal activity against Cryptococcus neoformans assessed as lowest dose level for total inhibition of fungal growth. It is filed as functional.

Each structure is given as a SMILES string. The source made the active and inactive calls. The rule behind the calls is not given here.

On to `Clc1ccc(CC(Cn2ccnc2)c2c(Cl)cccc2Cl)cc1.O=[N+]([O-])O` (stereo not given), for which the Activity in the assay with Mucor was more than 100 µg/mL; in assay [1], less than 1 µg/mL; in [3], 100 µg/mL; in the assay with Candida albicans [4] it was 100 µg/mL; with Streptococcus pyogenes, less than 1 µg/mL; in assay [5], less than 1 µg/mL. Further, the Activity in the assay with Trichophyton rubrum is less than 1 µg/mL; in the assay with Microsporum canis, less than 1 µg/mL; in the assay with Aspergillus fumigatus, 100 µg/mL; in the assay on Candida tropicalis, more than 100 µg/mL; with Sporothrix schenckii, 100 µg/mL; with Saprolegnia it was 100 µg/mL. The Activity with Phialophora verrucosa and in the assay with Cryptococcus neoformans was 100 µg/mL throughout. In addition, the outcome in the assay with Candida albicans [2] was inactive.

In the case of `Clc1ccc(CC(Cn2ccnc2)c2ccc(Cl)cc2Cl)cc1.O=[N+]([O-])O` (stereo not given), the Activity is 100 µg/mL in the assay on Mucor; less than 1 µg/mL in assay [1]; 10 µg/mL in [3]; 100 µg/mL in the assay on Candida albicans [4]; less than 1 µg/mL in the assay with Streptococcus pyogenes; less than 1 µg/mL in assay [5]. For the same compound, the Activity in the assay with Trichophyton rubrum is less than 1 µg/mL; with Microsporum canis it was 10 µg/mL; in the assay with Aspergillus fumigatus, 100 µg/mL; in the assay on Candida tropicalis it was 100 µg/mL; with Sporothrix schenckii, 10 µg/mL; in the assay with Saprolegnia it was less than 1 µg/mL. Besides, the Activity in the assay on Phialophora verrucosa is 100 µg/mL; with Cryptococcus neoformans, less than 1 µg/mL. The result in the assay on Candida albicans [2] was inactive.

Consider `Clc1ccc(CC(Cn2ccnc2)c2ccccc2Br)c(Cl)c1.O=[N+]([O-])O` (stereo not given), for which the Activity in the assay with Mucor is 10 µg/mL; in assay [1] it was less than 1 µg/mL; in assay [3] it was less than 1 µg/mL; in the assay with Candida albicans [4], 10 µg/mL; with Streptococcus pyogenes, 10 µg/mL; in assay [5], less than 1 µg/mL. For the same compound, the Activity with Trichophyton rubrum is less than 1 µg/mL; with Microsporum canis, 10 µg/mL; in the assay with Aspergillus fumigatus, 10 µg/mL; in the assay with Candida tropicalis, 100 µg/mL; in the assay on Sporothrix schenckii, 10 µg/mL; with Saprolegnia, 100 µg/mL. Moreover, the figures for the Activity in the assay with Phialophora verrucosa and with Cryptococcus neoformans were 100 µg/mL and less than 1 µg/mL, respectively. The outcome with Candida albicans [2] was inactive.

Turning to `Clc1ccc(CCC(Cn2ccnc2)c2ccc(Cl)cc2Cl)c(Cl)c1.O=[N+]([O-])O` (stereo not given), the Activity is more than 100 µg/mL in the assay with Mucor; less than 1 µg/mL in assay [1]; 100 µg/mL in assay [3]; more than 100 µg/mL with Candida albicans [4]; less than 1 µg/mL in the assay with Streptococcus pyogenes; less than 1 µg/mL in [5]. The Activity in the assay on Trichophyton rubrum was less than 1 µg/mL; with Microsporum canis it was 10 µg/mL; in the assay with Aspergillus fumigatus it was 100 µg/mL; in the assay with Candida tropicalis it was more than 100 µg/mL; in the assay with Sporothrix schenckii, 10 µg/mL; in the assay on Saprolegnia, 100 µg/mL. Besides, the results for the Activity with Phialophora verrucosa and in the assay on Cryptococcus neoformans were more than 100 µg/mL and less than 1 µg/mL, respectively. In addition, the outcome in the assay with Candida albicans [2] was inactive.

Consider `Clc1ccc(CC(Cn2ccnc2)c2ccccc2Cl)cc1.O=[N+]([O-])O` (stereo not given), for which the Activity is 100 µg/mL in the assay with Mucor; less than 1 µg/mL in assay [1]; 100 µg/mL in [3]; 10 µg/mL in the assay with Candida albicans [4]; 1 µg/mL in the assay on Streptococcus pyogenes; 1 µg/mL in assay [5]. For the same compound, the Activity was less than 1 µg/mL in the assay on Trichophyton rubrum; 10 µg/mL with Microsporum canis; 100 µg/mL with Aspergillus fumigatus; more than 100 µg/mL in the assay on Candida tropicalis; 10 µg/mL with Sporothrix schenckii; 100 µg/mL with Saprolegnia. The Activity in the assay with Phialophora verrucosa was 100 µg/mL; in the assay with Cryptococcus neoformans, less than 1 µg/mL. Also, the outcome with Candida albicans [2] was Active.

Consider `Clc1ccc(CC(Cn2ccnc2)c2ccc(Cl)cc2Cl)c(Cl)c1.O=[N+]([O-])O` (stereo not given), for which the Activity was 100 µg/mL with Mucor; less than 1 µg/mL in assay [1]; 10 µg/mL in assay [3]; 10 µg/mL in the assay with Candida albicans [4]; less than 1 µg/mL in the assay on Streptococcus pyogenes; less than 1 µg/mL in [5]. The Activity with Trichophyton rubrum was less than 1 µg/mL; in the assay on Microsporum canis, 10 µg/mL; in the assay with Aspergillus fumigatus, 100 µg/mL; in the assay with Candida tropicalis it was 10 µg/mL; in the assay on Sporothrix schenckii, less than 1 µg/mL; in the assay with Saprolegnia it was 100 µg/mL. In addition, the Activity in the assay on Phialophora verrucosa is 100 µg/mL; in the assay on Cryptococcus neoformans it was less than 1 µg/mL. Further, the result in the assay with Candida albicans [2] was inactive.

On to `Clc1ccc(C(CCc2ccccc2)Cn2ccnc2)c(Cl)c1.O=[N+]([O-])O` (stereo not given), for which the Activity in the assay on Mucor was 100 µg/mL; in [1] it was less than 1 µg/mL; in assay [3] it was 1 µg/mL; in the assay with Candida albicans [4], 100 µg/mL; in the assay on Streptococcus pyogenes, less than 1 µg/mL; in assay [5], less than 1 µg/mL. The Activity with Trichophyton rubrum is less than 1 µg/mL; in the assay with Microsporum canis, 10 µg/mL; with Aspergillus fumigatus, 100 µg/mL; in the assay with Candida tropicalis it was more than 100 µg/mL; with Sporothrix schenckii, 10 µg/mL; in the assay on Saprolegnia it was 10 µg/mL. Also, the Activity with Phialophora verrucosa is 10 µg/mL; in the assay on Cryptococcus neoformans, less than 1 µg/mL. In addition, in the assay with Candida albicans [2], the outcome was inactive.

Take `COc1ccc(CCC(Cn2ccnc2)c2ccc(Cl)cc2Cl)cc1.O=[N+]([O-])O` (stereo not given): the Activity is 100 µg/mL in the assay with Mucor; less than 1 µg/mL in assay [1]; 1 µg/mL in assay [3]; more than 100 µg/mL in the assay on Candida albicans [4]; less than 1 µg/mL in the assay on Streptococcus pyogenes; less than 1 µg/mL in assay [5]. Further, the Activity was less than 1 µg/mL in the assay with Trichophyton rubrum; 10 µg/mL with Microsporum canis; 100 µg/mL in the assay on Aspergillus fumigatus; more than 100 µg/mL in the assay on Candida tropicalis; 10 µg/mL with Sporothrix schenckii; 10 µg/mL with Saprolegnia. Moreover, the values for the Activity in the assay with Phialophora verrucosa and in the assay with Cryptococcus neoformans were 10 µg/mL and less than 1 µg/mL, respectively. Besides, the outcome in the assay with Candida albicans [2] was inactive.

With `Clc1ccccc1CC(Cn1ccnc1)c1ccccc1Cl.O=[N+]([O-])O` (stereo not given), the Activity in the assay with Mucor was 100 µg/mL; in assay [1] it was less than 1 µg/mL; in assay [3] it was 100 µg/mL; in the assay with Candida albicans [4], 100 µg/mL; in the assay with Streptococcus pyogenes, less than 1 µg/mL; in [5] it was 1 µg/mL. The Activity in the assay on Trichophyton rubrum was less than 1 µg/mL; in the assay on Microsporum canis, 10 µg/mL; in the assay with Aspergillus fumigatus it was 10 µg/mL; with Candida tropicalis it was more than 100 µg/mL; in the assay on Sporothrix schenckii it was 10 µg/mL; in the assay with Saprolegnia, 100 µg/mL. Further, the Activity in the assay with Phialophora verrucosa was 100 µg/mL; in the assay on Cryptococcus neoformans, less than 1 µg/mL. For the same compound, in the assay on Candida albicans [2], the result was inactive.

On to `Clc1ccc(CCC(Cn2ccnc2)c2ccc(Cl)cc2Cl)cc1.O=[N+]([O-])O` (stereo not given), for which the Activity was 100 µg/mL with Mucor; less than 1 µg/mL in assay [1]; 1 µg/mL in assay [3]; 10 µg/mL in the assay with Candida albicans [4]; less than 1 µg/mL in the assay on Streptococcus pyogenes; less than 1 µg/mL in assay [5]. The Activity in the assay with Trichophyton rubrum is less than 1 µg/mL; in the assay with Microsporum canis it was 10 µg/mL; in the assay with Aspergillus fumigatus it was 100 µg/mL; in the assay with Candida tropicalis it was 10 µg/mL; with Sporothrix schenckii, less than 1 µg/mL; with Saprolegnia it was 10 µg/mL. The Activity is 10 µg/mL in the assay on Phialophora verrucosa and less than 1 µg/mL in the assay with Cryptococcus neoformans. Moreover, in the assay with Candida albicans [2], the result was inactive.

With `Clc1ccc(C(Cc2ccc(Br)cc2)Cn2ccnc2)c(Cl)c1.O=[N+]([O-])O` (stereo not given), the Activity is 10 µg/mL in the assay with Mucor; less than 1 µg/mL in assay [1]; 10 µg/mL in assay [3]; 10 µg/mL in the assay on Candida albicans [4]; less than 1 µg/mL with Streptococcus pyogenes; less than 1 µg/mL in assay [5]. For the same compound, the Activity is less than 1 µg/mL with Trichophyton rubrum; 10 µg/mL in the assay on Microsporum canis; 100 µg/mL in the assay on Aspergillus fumigatus; 10 µg/mL in the assay on Candida tropicalis; 10 µg/mL in the assay with Sporothrix schenckii; 100 µg/mL in the assay with Saprolegnia. For the same compound, the results for the Activity in the assay with Phialophora verrucosa and in the assay with Cryptococcus neoformans were 10 µg/mL and less than 1 µg/mL, respectively. Also, the result in the assay on Candida albicans [2] was inactive.

The record behind these values is ChEMBL document CHEMBL3271999, “Antimycotic imidazoles. 2. Synthesis and antimycotic properties of 1-[2-(arylalkyl)-2-phenylethyl]-1H-imidazoles” (1977).
